According to ChEMBL document CHEMBL4507268 (2021):

Columns and labels:
[1] = biological target: Activin receptor type-2A (Homo sapiens) (UniProt P27037); details: Compound concentration 1000.0 nM
[2] = biological target: RAC-gamma serine/threonine-protein kinase (Homo sapiens) (UniProt Q9Y243); details: Compound concentration 1000.0 nM
[3] = system: ALK tyrosine kinase receptor (Homo sapiens), Q9UM73 [C1156Y]; details: Compound concentration 1000.0 nM
[4] = biological target: Calcium/calmodulin-dependent protein kinase kinase 1 (Homo sapiens) (UniProt Q8N5S9); details: Compound concentration 1000.0 nM
[5] = biological target: Cyclin-dependent kinase-like 1 (Homo sapiens) (UniProt Q00532); details: Compound concentration 1000.0 nM
[6] = biological target: Macrophage colony-stimulating factor 1 receptor (Homo sapiens) (UniProt P07333); details: Compound concentration 1000.0 nM
[7] = biological target: Casein kinase I isoform delta (Homo sapiens) (UniProt P48730); details: Compound concentration 1000.0 nM
[8] = biological target: Death-associated protein kinase 2 (Homo sapiens) (UniProt Q9UIK4); details: Compound concentration 1000.0 nM
[9] = biological target: T1, Serine/threonine-protein kinase 17A (Homo sapiens) (UniProt Q9UEE5); details: Compound concentration 1000.0 nM
T1 sequence (whole entry): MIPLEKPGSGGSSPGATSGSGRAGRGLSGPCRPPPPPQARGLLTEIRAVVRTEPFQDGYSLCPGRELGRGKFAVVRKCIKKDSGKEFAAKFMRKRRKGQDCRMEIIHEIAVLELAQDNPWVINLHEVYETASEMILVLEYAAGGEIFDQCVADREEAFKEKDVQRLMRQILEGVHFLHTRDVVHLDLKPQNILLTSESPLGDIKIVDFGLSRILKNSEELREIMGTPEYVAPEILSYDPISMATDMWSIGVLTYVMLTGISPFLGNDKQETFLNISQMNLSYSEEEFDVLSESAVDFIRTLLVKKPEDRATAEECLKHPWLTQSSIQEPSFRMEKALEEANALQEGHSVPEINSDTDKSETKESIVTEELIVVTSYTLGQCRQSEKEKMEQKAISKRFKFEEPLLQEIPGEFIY

[10] = system: Epidermal growth factor receptor (Homo sapiens), P00533 [L858R,T790M]; details: Compound concentration 1000.0 nM
[11] = biological target: T2, Ephrin type-B receptor 1 (Homo sapiens) (UniProt P54762); details: Compound concentration 1000.0 nM
T2 sequence (whole entry): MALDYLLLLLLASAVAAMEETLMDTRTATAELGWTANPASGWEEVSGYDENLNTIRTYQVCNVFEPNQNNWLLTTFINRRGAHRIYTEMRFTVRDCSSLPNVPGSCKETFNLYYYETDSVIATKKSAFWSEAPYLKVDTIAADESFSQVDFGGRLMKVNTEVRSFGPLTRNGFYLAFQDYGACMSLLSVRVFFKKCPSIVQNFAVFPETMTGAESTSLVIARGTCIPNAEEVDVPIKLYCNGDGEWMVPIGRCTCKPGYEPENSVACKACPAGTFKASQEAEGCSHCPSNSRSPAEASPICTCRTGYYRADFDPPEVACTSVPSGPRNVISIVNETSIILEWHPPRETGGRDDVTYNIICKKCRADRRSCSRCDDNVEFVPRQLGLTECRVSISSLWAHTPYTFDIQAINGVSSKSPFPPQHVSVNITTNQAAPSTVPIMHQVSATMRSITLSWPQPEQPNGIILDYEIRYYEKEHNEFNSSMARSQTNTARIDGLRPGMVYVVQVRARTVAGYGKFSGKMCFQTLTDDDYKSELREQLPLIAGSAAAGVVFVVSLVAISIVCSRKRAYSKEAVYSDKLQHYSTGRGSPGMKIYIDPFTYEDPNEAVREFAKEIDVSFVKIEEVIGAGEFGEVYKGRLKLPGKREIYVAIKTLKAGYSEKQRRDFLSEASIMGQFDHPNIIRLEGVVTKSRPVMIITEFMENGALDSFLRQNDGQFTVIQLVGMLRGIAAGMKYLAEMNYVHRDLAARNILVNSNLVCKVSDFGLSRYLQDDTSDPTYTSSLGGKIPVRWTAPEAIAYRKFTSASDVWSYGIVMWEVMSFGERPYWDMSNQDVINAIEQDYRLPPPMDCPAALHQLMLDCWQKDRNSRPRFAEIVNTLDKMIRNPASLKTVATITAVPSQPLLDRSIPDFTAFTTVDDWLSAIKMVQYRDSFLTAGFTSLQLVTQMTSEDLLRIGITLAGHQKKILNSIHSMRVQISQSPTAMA

[12] = biological target: Tyrosine-protein kinase Fgr (Homo sapiens) (UniProt P09769); details: Compound concentration 1000.0 nM
[13] = biological target: Tyrosine-protein kinase Lyn (Homo sapiens) (UniProt P07948); details: Compound concentration 1000.0 nM
[14] = biological target: Mitogen-activated protein kinase kinase kinase kinase 4 (Homo sapiens) (UniProt O95819); details: Compound concentration 1000.0 nM
[15] = biological target: MAP kinase-activated protein kinase 2 (Homo sapiens) (UniProt P49137); details: Compound concentration 1000.0 nM
[16] = biological target: Myosin light chain kinase family member 4 (Homo sapiens) (UniProt Q86YV6); details: Compound concentration 1000.0 nM
[17] = system: Phosphatidylinositol 4,5-bisphosphate 3-kinase catalytic subunit alpha isoform (Homo sapiens), P42336 [I800L]; details: Compound concentration 1000.0 nM
[18] = system: Proto-oncogene tyrosine-protein kinase receptor Ret (Homo sapiens), P07949 [V804M]; details: Compound concentration 1000.0 nM
[19] = biological target: Ribosomal protein S6 kinase alpha-3 (Homo sapiens) (UniProt P51812); details: Compound concentration 1000.0 nM
[20] = biological target: Activated CDC42 kinase 1 (Homo sapiens) (UniProt Q07912); details: Compound concentration 1000.0 nM
[21] = biological target: Alpha-2A adrenergic receptor (Homo sapiens) (UniProt P08913); details: Compound concentration 10.0 uM
Alpha-2A adrenergic receptor (Homo sapiens), sequence (P08913 whole entry): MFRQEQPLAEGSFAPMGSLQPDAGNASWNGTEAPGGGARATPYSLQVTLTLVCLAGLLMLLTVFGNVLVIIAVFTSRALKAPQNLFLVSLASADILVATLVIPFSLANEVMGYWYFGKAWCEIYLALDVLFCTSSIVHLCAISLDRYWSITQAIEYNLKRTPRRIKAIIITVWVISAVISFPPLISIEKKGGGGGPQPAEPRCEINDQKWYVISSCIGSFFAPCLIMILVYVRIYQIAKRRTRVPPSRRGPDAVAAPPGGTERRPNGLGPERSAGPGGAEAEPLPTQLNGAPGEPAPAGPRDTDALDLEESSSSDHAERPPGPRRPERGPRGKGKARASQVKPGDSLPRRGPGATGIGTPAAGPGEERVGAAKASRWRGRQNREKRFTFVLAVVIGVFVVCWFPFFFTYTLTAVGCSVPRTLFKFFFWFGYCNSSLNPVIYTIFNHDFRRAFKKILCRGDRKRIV

Calcium/calmodulin-dependent protein kinase kinase 1 (Homo sapiens), sequence (Q8N5S9 whole entry, looked up): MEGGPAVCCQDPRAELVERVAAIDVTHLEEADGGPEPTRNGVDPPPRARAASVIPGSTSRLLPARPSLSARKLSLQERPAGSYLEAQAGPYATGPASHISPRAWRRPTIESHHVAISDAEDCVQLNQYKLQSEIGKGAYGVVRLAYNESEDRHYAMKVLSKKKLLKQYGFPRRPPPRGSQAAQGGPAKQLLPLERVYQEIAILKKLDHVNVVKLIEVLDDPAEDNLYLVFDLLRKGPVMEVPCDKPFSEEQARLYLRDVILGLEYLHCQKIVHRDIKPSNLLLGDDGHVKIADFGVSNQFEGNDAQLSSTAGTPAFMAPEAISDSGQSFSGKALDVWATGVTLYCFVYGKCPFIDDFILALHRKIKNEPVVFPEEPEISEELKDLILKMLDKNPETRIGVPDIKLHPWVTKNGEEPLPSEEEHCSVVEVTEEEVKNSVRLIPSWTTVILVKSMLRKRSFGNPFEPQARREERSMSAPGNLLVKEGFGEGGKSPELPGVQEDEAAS
Tyrosine-protein kinase Lyn (Homo sapiens), sequence (P07948 2-512 limits assumed): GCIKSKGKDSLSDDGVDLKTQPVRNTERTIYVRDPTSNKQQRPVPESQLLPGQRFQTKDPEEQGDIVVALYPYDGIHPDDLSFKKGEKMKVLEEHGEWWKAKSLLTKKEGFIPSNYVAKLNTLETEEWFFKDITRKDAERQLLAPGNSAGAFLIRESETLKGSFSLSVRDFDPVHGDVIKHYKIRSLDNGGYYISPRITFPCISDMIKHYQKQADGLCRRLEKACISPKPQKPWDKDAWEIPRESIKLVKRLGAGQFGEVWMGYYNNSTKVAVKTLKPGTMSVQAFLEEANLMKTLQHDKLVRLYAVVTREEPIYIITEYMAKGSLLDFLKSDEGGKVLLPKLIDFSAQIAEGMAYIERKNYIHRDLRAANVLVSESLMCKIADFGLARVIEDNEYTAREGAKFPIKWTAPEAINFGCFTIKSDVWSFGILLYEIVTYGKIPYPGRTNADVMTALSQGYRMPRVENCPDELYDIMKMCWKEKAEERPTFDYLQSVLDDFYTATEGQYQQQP
Phosphatidylinositol 4,5-bisphosphate 3-kinase catalytic subunit alpha isoform (Homo sapiens), P42336 [I800L], sequence (P42336 whole entry I800L, canonical isoform): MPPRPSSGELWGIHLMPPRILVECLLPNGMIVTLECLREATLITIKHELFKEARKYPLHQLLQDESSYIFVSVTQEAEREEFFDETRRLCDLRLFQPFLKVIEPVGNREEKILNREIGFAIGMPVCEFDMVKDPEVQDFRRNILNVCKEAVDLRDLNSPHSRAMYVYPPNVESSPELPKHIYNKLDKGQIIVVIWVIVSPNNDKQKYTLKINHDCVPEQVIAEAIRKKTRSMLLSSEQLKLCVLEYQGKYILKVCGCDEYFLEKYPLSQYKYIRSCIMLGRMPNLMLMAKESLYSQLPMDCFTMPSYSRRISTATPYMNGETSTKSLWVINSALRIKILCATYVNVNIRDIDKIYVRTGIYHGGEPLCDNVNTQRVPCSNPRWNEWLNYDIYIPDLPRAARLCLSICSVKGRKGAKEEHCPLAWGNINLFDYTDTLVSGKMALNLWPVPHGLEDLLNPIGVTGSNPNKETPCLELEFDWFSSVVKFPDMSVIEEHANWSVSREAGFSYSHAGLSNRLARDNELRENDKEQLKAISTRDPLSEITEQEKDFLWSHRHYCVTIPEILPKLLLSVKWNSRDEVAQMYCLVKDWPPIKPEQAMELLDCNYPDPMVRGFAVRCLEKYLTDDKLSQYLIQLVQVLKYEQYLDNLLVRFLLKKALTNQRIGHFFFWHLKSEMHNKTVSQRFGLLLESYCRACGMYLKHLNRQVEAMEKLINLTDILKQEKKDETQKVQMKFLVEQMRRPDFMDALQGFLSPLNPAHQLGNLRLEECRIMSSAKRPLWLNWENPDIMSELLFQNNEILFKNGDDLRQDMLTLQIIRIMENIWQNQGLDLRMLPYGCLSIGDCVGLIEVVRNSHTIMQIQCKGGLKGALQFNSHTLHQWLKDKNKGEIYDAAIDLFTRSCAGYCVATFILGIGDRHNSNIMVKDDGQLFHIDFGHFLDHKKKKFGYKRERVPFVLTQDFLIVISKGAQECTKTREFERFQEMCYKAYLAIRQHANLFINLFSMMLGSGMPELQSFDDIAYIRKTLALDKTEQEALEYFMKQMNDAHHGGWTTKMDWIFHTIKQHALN
Mitogen-activated protein kinase kinase kinase kinase 4 (Homo sapiens), sequence (O95819 2-1239 limits assumed): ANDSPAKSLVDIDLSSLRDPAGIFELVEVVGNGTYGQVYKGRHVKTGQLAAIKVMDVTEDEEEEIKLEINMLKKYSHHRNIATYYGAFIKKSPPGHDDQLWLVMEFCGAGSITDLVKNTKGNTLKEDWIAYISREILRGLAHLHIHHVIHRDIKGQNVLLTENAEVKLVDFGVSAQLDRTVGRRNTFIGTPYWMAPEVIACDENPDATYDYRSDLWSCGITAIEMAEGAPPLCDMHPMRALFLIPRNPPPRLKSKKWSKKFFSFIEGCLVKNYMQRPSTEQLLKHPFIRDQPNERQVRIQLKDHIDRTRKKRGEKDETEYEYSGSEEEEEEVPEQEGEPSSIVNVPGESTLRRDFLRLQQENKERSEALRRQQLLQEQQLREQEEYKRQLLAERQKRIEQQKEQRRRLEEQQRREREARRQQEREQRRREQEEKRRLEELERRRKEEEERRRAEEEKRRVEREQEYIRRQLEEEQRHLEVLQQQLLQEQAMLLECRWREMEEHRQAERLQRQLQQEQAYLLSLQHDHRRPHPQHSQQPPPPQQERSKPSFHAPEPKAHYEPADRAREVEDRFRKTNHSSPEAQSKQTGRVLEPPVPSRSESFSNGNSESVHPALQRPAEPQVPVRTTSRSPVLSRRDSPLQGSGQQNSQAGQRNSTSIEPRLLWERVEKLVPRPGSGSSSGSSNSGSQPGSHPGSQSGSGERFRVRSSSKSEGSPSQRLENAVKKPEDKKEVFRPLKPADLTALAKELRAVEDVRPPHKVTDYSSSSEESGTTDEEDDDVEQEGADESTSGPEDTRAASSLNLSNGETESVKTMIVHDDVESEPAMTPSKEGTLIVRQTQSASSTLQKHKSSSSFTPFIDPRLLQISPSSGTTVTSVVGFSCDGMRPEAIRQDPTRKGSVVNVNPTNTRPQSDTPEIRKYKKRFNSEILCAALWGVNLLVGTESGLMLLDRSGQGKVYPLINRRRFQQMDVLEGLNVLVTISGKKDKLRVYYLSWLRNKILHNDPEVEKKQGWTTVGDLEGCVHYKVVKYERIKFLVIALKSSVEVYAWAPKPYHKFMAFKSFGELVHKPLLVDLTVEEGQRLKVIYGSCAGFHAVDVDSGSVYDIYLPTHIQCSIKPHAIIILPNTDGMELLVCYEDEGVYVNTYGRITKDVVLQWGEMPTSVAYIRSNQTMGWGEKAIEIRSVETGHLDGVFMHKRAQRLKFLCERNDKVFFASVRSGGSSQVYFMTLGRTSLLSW
Death-associated protein kinase 2 (Homo sapiens), sequence (Q9UIK4 whole entry, looked up): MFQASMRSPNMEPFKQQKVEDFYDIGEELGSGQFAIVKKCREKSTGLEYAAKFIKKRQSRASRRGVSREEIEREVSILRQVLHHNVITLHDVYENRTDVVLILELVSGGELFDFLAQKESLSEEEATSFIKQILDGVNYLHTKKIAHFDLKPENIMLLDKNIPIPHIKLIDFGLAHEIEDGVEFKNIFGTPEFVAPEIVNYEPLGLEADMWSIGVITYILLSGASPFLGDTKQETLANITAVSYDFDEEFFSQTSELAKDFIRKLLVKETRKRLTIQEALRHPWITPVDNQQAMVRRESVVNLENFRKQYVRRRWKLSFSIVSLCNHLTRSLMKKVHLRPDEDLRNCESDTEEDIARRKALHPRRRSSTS
Tyrosine-protein kinase Fgr (Homo sapiens), sequence (P09769 2-529 limits assumed): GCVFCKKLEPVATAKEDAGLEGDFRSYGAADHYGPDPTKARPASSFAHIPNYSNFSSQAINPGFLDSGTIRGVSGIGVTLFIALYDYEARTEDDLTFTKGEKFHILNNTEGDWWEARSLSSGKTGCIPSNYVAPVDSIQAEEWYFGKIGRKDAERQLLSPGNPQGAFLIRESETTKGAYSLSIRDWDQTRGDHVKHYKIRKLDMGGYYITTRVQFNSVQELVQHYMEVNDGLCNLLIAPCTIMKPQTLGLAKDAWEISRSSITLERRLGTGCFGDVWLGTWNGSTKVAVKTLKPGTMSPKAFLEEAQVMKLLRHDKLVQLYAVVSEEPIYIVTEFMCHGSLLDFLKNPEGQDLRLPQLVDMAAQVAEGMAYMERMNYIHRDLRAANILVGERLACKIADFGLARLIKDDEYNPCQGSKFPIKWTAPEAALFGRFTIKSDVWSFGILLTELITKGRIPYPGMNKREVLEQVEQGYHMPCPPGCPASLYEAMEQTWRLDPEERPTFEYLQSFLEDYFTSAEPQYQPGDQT
Cyclin-dependent kinase-like 1 (Homo sapiens), sequence (Q00532 whole entry): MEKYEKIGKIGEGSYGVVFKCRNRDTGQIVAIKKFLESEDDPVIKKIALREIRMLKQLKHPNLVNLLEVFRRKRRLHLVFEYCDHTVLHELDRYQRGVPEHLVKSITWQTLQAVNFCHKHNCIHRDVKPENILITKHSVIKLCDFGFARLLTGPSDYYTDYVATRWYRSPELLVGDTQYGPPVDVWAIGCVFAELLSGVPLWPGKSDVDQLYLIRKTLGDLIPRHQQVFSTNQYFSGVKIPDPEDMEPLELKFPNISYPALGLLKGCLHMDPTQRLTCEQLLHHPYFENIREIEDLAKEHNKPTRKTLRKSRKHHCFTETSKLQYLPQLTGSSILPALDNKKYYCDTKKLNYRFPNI

Cc1nc(C2CCN(C(=O)c3ccc(OC(F)(F)F)cc3N)CC2)c2ncc(N3CCN(C)CC3)cc2n1 [BAY-693]
inactive: residual activity [1] 100% | residual activity [2] 95% | residual activity [3] 100% | residual activity [4] 100% | residual activity [5] 89% | residual activity [6] 99% | residual activity [7] 83% | residual activity [8] 100% | residual activity [9] 100% | residual activity [10] 88% | residual activity [11] 95% | residual activity [12] 100% | residual activity [13] 100% | residual activity [14] 100% | residual activity [15] 100% | residual activity [16] 100% | residual activity [17] 96% | residual activity [18] 100% | residual activity [19] 82% | residual activity [20] 100% | inhibition [21] -6.02%

CN1CCN(c2cnc3c(C4CCN(C(=O)c5ccc(OC(F)(F)F)cc5N)CC4)ncnc3c2)CC1 [BAY-885]
inactive: residual activity [1] 100% | residual activity [2] 93% | residual activity [3] 100% | residual activity [4] 100% | residual activity [5] 94% | residual activity [6] 100% | residual activity [7] 100% | residual activity [8] 90% | residual activity [9] 92% | residual activity [10] 95% | residual activity [11] 100% | residual activity [12] 100% | residual activity [13] 75% | residual activity [14] 100% | residual activity [15] 100% | residual activity [16] 100% | residual activity [17] 100% | residual activity [18] 100% | residual activity [19] 80% | residual activity [20] 100% | inhibition [21] -3.41%
